Results reported in ChEMBL document CHEMBL1144995, “Carbonic anhydrase inhibitors. Inhibition of tumor-associated isozyme IX by halogenosulfanilamide and halogenophenylaminobenzolamide derivatives” (J Med Chem, 2003).

How the values were obtained:
Carbonic anhydrase 1 = Carbonic anhydrase 1 (Homo sapiens, UniProt P00915)
Description: Inhibition constant determined against human cloned carbonic anhydrase I

Carbonic anhydrase 2 = Carbonic anhydrase 2 (Homo sapiens, UniProt P00918)
Description: Inhibition constant (Ki) against human cloned carbonic anhydrase II (CAH)

Carbonic anhydrase 9 = Carbonic anhydrase 9 (Homo sapiens, UniProt Q16790)
Description: Inhibition constant determined against catalytic domain of human cloned carbonic anhydrase IX

Carbonic anhydrase 4 = target: T1, Carbonic anhydrase 4 (Bos taurus, UniProt Q95323)
T1 sequence (Q95323 whole entry): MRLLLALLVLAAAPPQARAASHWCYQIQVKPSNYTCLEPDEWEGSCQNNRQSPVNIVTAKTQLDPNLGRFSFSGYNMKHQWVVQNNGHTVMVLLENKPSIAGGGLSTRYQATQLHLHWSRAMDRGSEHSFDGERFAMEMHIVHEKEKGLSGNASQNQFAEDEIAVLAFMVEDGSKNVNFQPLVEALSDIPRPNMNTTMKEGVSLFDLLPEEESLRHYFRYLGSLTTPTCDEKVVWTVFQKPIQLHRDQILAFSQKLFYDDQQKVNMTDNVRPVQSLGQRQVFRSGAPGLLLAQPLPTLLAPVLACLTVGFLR
Description: Inhibition constant against bovine Carbonic anhydrase IV, isolated from lung microsomes

Sequence of Carbonic anhydrase 1 (P00915 whole entry): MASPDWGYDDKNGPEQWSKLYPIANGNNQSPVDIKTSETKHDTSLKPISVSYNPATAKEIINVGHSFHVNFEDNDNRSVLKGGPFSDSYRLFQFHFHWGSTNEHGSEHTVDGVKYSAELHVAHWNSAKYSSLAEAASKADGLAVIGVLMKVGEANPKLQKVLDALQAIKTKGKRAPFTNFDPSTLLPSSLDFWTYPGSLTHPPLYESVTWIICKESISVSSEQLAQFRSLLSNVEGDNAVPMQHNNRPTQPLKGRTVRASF

CC(=O)Nc1ccc(S(=O)(=O)Nc2nnc(S(N)(=O)=O)s2)cc1Br
Ki (Carbonic anhydrase 1): 5 nM | Ki (Carbonic anhydrase 2): 1.5 nM | Ki (Carbonic anhydrase 9): 78 nM | Ki (Carbonic anhydrase 4): 4.6 nM

CC(=O)Nc1ccc(S(=O)(=O)Nc2nnc(S(N)(=O)=O)s2)cc1Cl
Ki (Carbonic anhydrase 1): 5.4 nM | Ki (Carbonic anhydrase 2): 1.3 nM | Ki (Carbonic anhydrase 9): 71 nM | Ki (Carbonic anhydrase 4): 4.2 nM

CC(=O)Nc1ccc(S(=O)(=O)Nc2nnc(S(N)(=O)=O)s2)cc1F
Ki (Carbonic anhydrase 1): 5.7 nM | Ki (Carbonic anhydrase 2): 1.2 nM | Ki (Carbonic anhydrase 9): 79 nM | Ki (Carbonic anhydrase 4): 4 nM

CC(=O)Nc1ccc(S(=O)(=O)Nc2nnc(S(N)(=O)=O)s2)cc1
Ki (Carbonic anhydrase 1): 10.2 nM | Ki (Carbonic anhydrase 2): 3.1 nM | Ki (Carbonic anhydrase 9): 75 nM | Ki (Carbonic anhydrase 4): 8.2 nM

Nc1c(Cl)cc(S(=O)(=O)Nc2nnc(S(N)(=O)=O)s2)cc1Cl
Ki (Carbonic anhydrase 1): 1.1 nM | Ki (Carbonic anhydrase 2): 0.5 nM | Ki (Carbonic anhydrase 9): 24 nM | Ki (Carbonic anhydrase 4): 1.9 nM

Nc1c(F)cc(S(N)(=O)=O)cc1Br
Ki (Carbonic anhydrase 1): 3900 nM | Ki (Carbonic anhydrase 2): 33 nM | Ki (Carbonic anhydrase 9): 69 nM | Ki (Carbonic anhydrase 4): 113 nM

CC(=O)Nc1ccc(S(=O)(=O)Nc2nnc(S(N)(=O)=O)s2)cc1I
Ki (Carbonic anhydrase 1): 5.2 nM | Ki (Carbonic anhydrase 2): 1.7 nM | Ki (Carbonic anhydrase 4): 4.5 nM

CC(=O)Nc1ccc(S(N)(=O)=O)cc1F
Ki (Carbonic anhydrase 1): 4200 nM | Ki (Carbonic anhydrase 2): 29 nM | Ki (Carbonic anhydrase 9): 213 nM | Ki (Carbonic anhydrase 4): 105 nM

Nc1c(F)cc(S(=O)(=O)Nc2nnc(S(N)(=O)=O)s2)cc1Br
Ki (Carbonic anhydrase 1): 1 nM | Ki (Carbonic anhydrase 2): 0.2 nM | Ki (Carbonic anhydrase 9): 27 nM | Ki (Carbonic anhydrase 4): 1.9 nM

Nc1ccc(S(=O)(=O)Nc2nnc(S(N)(=O)=O)s2)cc1I
Ki (Carbonic anhydrase 1): 2.1 nM | Ki (Carbonic anhydrase 2): 0.6 nM | Ki (Carbonic anhydrase 4): 2.5 nM

Nc1c(Cl)cc(S(=O)(=O)Nc2nnc(S(N)(=O)=O)s2)cc1Br
Ki (Carbonic anhydrase 1): 1.3 nM | Ki (Carbonic anhydrase 2): 0.6 nM | Ki (Carbonic anhydrase 4): 2 nM

Nc1c(Br)cc(S(N)(=O)=O)cc1Br
Ki (Carbonic anhydrase 9): 68 nM | Ki (Carbonic anhydrase 4): 175 nM

Nc1c(Cl)cc(S(=O)(=O)Nc2nnc(S(N)(=O)=O)s2)cc1I
Ki (Carbonic anhydrase 1): 1.6 nM | Ki (Carbonic anhydrase 2): 0.8 nM | Ki (Carbonic anhydrase 4): 2.7 nM

Nc1ccc(S(=O)(=O)Nc2nnc(S(N)(=O)=O)s2)cc1Cl
Ki (Carbonic anhydrase 1): 2.5 nM | Ki (Carbonic anhydrase 2): 0.6 nM | Ki (Carbonic anhydrase 9): 46 nM | Ki (Carbonic anhydrase 4): 2.4 nM

CC(=O)Nc1ccc(S(N)(=O)=O)cc1Cl
Ki (Carbonic anhydrase 1): 6250 nM | Ki (Carbonic anhydrase 2): 74 nM | Ki (Carbonic anhydrase 9): 196 nM | Ki (Carbonic anhydrase 4): 245 nM

Nc1c(F)cc(S(=O)(=O)Nc2nnc(S(N)(=O)=O)s2)cc1I
Ki (Carbonic anhydrase 1): 1.7 nM | Ki (Carbonic anhydrase 2): 0.3 nM | Ki (Carbonic anhydrase 9): 21 nM | Ki (Carbonic anhydrase 4): 2.1 nM

Nc1c(Br)cc(S(N)(=O)=O)cc1I
Ki (Carbonic anhydrase 1): 12500 nM | Ki (Carbonic anhydrase 2): 107 nM | Ki (Carbonic anhydrase 4): 250 nM

Nc1c(Cl)cc(S(N)(=O)=O)cc1Br
Ki (Carbonic anhydrase 1): 7600 nM | Ki (Carbonic anhydrase 2): 54 nM | Ki (Carbonic anhydrase 9): 33 nM | Ki (Carbonic anhydrase 4): 210 nM

CC(=O)Nc1ccc(S(N)(=O)=O)cc1I
Ki (Carbonic anhydrase 1): 3300 nM | Ki (Carbonic anhydrase 2): 47 nM | Ki (Carbonic anhydrase 9): 209 nM | Ki (Carbonic anhydrase 4): 115 nM

Nc1c(I)cc(S(N)(=O)=O)cc1I
Ki (Carbonic anhydrase 1): 14000 nM | Ki (Carbonic anhydrase 4): 280 nM

Nc1c(I)cc(S(=O)(=O)Nc2nnc(S(N)(=O)=O)s2)cc1I
Ki (Carbonic anhydrase 2): 0.9 nM | Ki (Carbonic anhydrase 9): 41 nM | Ki (Carbonic anhydrase 4): 2.3 nM

Nc1c(Cl)cc(S(N)(=O)=O)cc1I
Ki (Carbonic anhydrase 1): 7800 nM | Ki (Carbonic anhydrase 2): 61 nM | Ki (Carbonic anhydrase 9): 63 nM | Ki (Carbonic anhydrase 4): 200 nM

Nc1ccc(S(=O)(=O)Nc2nnc(S(N)(=O)=O)s2)cc1F
Ki (Carbonic anhydrase 1): 3.1 nM | Ki (Carbonic anhydrase 2): 0.8 nM | Ki (Carbonic anhydrase 9): 46 nM | Ki (Carbonic anhydrase 4): 2.5 nM

Nc1c(Br)cc(S(=O)(=O)Nc2nnc(S(N)(=O)=O)s2)cc1Br
Ki (Carbonic anhydrase 1): 1 nM | Ki (Carbonic anhydrase 2): 0.5 nM | Ki (Carbonic anhydrase 9): 39 nM | Ki (Carbonic anhydrase 4): 1.7 nM

CC(=O)Nc1ccc(S(N)(=O)=O)cc1Br
Ki (Carbonic anhydrase 1): 3400 nM | Ki (Carbonic anhydrase 2): 25 nM | Ki (Carbonic anhydrase 9): 203 nM | Ki (Carbonic anhydrase 4): 58 nM

Nc1c(F)cc(S(N)(=O)=O)cc1I
Ki (Carbonic anhydrase 1): 3700 nM | Ki (Carbonic anhydrase 2): 29 nM | Ki (Carbonic anhydrase 9): 34 nM | Ki (Carbonic anhydrase 4): 125 nM

Nc1c(Cl)cc(S(N)(=O)=O)cc1Cl
Ki (Carbonic anhydrase 1): 7000 nM | Ki (Carbonic anhydrase 2): 50 nM | Ki (Carbonic anhydrase 9): 27 nM | Ki (Carbonic anhydrase 4): 165 nM

Nc1ccc(S(=O)(=O)Nc2nnc(S(N)(=O)=O)s2)cc1Br
Ki (Carbonic anhydrase 1): 1.9 nM | Ki (Carbonic anhydrase 2): 0.7 nM | Ki (Carbonic anhydrase 9): 47 nM | Ki (Carbonic anhydrase 4): 2.4 nM

Nc1c(F)cc(S(N)(=O)=O)cc1Cl
Ki (Carbonic anhydrase 1): 3800 nM | Ki (Carbonic anhydrase 2): 32 nM | Ki (Carbonic anhydrase 9): 12 nM | Ki (Carbonic anhydrase 4): 95 nM

Nc1c(F)cc(S(=O)(=O)Nc2nnc(S(N)(=O)=O)s2)cc1Cl
Ki (Carbonic anhydrase 1): 1.4 nM | Ki (Carbonic anhydrase 9): 40 nM | Ki (Carbonic anhydrase 4): 2 nM

Nc1c(Br)cc(S(=O)(=O)Nc2nnc(S(N)(=O)=O)s2)cc1I
Ki (Carbonic anhydrase 1): 1.9 nM | Ki (Carbonic anhydrase 2): 0.6 nM | Ki (Carbonic anhydrase 4): 2.3 nM
